Test results from PMC3437627 (Bioorganic & medicinal chemistry letters, 2008).

What was measured:
α7* nAChRs [1] = molecular target: T1, α7* nAChRs (Rattus norvegicus, UniProt Q05941); test: [3H]methyllycaconitine; format: binding; conditions: 100 nM
α4β2* nAChRs = α4β2* nAChRs (Rattus norvegicus, UniProt P09483+P12390); conditions: rat brain membranes; cited from earlier work
α7* nAChRs [2] = molecular target: T1, α7* nAChRs; conditions: rat brain membranes; cited from earlier work
[3] = system: nicotine self-administration; conditions: rats; cited from earlier work
[4] = in vivo; cited from earlier work

T1 sequence (Q05941 23-502): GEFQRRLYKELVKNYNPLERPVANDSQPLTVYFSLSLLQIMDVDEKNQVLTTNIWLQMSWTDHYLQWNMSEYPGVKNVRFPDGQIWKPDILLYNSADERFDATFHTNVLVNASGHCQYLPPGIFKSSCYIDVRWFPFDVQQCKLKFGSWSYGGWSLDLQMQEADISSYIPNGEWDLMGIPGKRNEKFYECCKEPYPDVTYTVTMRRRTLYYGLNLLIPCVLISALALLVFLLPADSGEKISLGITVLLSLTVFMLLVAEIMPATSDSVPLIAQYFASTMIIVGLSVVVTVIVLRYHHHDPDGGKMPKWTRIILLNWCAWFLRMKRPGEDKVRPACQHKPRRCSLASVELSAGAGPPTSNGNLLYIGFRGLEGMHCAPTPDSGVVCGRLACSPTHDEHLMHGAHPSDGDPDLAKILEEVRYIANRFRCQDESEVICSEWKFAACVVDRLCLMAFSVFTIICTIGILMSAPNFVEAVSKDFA
Sequence of α4β2* nAChRs (P09483 31-630): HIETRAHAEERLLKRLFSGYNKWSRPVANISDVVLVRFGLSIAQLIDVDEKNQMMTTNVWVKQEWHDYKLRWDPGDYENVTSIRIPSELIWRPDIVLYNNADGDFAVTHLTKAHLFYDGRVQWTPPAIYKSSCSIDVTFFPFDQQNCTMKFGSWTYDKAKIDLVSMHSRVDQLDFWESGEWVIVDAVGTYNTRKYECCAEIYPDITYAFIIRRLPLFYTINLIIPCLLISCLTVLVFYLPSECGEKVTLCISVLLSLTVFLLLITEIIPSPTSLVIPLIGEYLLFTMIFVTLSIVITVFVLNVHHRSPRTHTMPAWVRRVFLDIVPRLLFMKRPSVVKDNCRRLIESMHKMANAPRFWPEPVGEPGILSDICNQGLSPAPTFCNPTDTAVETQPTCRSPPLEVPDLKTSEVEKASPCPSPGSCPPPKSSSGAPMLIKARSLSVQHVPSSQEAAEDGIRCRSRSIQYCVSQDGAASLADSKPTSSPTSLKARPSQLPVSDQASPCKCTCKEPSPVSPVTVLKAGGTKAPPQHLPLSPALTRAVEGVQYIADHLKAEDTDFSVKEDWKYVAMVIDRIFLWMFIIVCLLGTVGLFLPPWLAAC
Sequence of α4β2* nAChRs (P12390 25-500): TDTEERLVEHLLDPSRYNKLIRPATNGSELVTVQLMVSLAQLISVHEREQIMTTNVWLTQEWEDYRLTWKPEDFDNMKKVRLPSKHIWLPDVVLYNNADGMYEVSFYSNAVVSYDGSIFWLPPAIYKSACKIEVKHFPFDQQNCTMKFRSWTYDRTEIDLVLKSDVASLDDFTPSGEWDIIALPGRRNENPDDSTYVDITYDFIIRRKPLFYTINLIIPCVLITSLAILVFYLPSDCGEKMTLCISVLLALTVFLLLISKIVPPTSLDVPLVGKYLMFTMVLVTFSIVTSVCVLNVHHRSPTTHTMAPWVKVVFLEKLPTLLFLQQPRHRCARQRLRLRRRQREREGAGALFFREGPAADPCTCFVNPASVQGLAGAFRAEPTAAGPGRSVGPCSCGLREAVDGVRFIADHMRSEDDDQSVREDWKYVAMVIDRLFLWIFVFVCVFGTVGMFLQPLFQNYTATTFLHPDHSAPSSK

C(#Cc1cc(C#CCCC[n+]2cccc(-c3ccccc3)c2)c(C#CCCC[n+]2cccc(-c3ccccc3)c2)cc1C#CCCC[n+]1cccc(-c2ccccc2)c1)CCC[n+]1cccc(-c2ccccc2)c1.[Br-].[Br-].[Br-].[Br-] [Compound 8i]
inhibition in the MLA assay (α7* nAChRs [1]): significant inhibition

C(#Cc1cc(C#CCCC[n+]2cccc(Cc3ccccc3)c2)c(C#CCCC[n+]2cccc(Cc3ccccc3)c2)cc1C#CCCC[n+]1cccc(Cc2ccccc2)c1)CCC[n+]1cccc(Cc2ccccc2)c1.[Br-].[Br-].[Br-].[Br-] [Compound 8f]
inhibition in the MLA assay (α7* nAChRs [1]): significant inhibition

Cc1ccc[n+](CCCCCCCCCCCC[n+]2cccc(C)c2)c1.[Br-].[Br-] [Compound 2, N,N’-dodecane-1,12-diyl-bis-3-picolinium dibromide]
affinity for α4β2* nAChR binding site (α4β2* nAChRs): no affinity | affinity for α7* nAChR binding site (α7* nAChRs [2]): no affinity | effect on nicotine self-administration [3]: decrease nicotine self-administration | brain bioavailability [4]: brain bio-available
